Entries after “also recorded” stand apart in the source; their conditions may differ.
Experiments:
CD1 mice = settings: for signs of hepatotoxicity: CD-1 mice; for animals dead in 48 hours: FIG. 1F experiment, data not shown
Procedure: After drug administration, animals were returned to their respective cages and maintained with food and water provided ad libitum for the next 12 h. Animals were then euthanized under 5% isoflurane anesthesia after 12 h, and whole blood samples were collected transcardially in sterile microcentrifuge tubes without anti-coagulants. Whole blood samples were stored at room temperature (25° C.) for 30 min, allowing them to coagulate, which was centrifuged at 1,000 g for 5 min at 4° C. to isolate serum samples from whole blood, which were collected, aliquoted, and stored at −80° C. for identification of NAPQI, and liver function tests (LFTs).
LFTs were done on fresh serum samples, and not on thawed frozen serum samples to avoid denaturing LFT transaminases due to freeze/thaw of frozen serum.
Employing a consistent lethal dose for both compounds streamline the experimental design and facilitates data interpretation. This approach aligns with FDA guidelines on Bioequivalence and Bioavailability studies for estimating the maximum safe starting dose in humans, a strategy further substantiated by others. At 12 h post-injection, mice were deeply anesthetized under 5% isoflurane for more than 5 min and formalin-fixed via transcardial perfusion with 10% Neutral Buffered Formalin (NBF) after exsanguination using 0.9% NaCl. Liver tissues were extracted and stored in NBF for 24 h post fixation, after which they were then transferred to 80% EtOH for storage prior to paraffin embedding, sectioning, and immunological staining. FFPE blocks were sectioned into 5 μm thick slices on regular frost-free plus slides and dried overnight on a slide warmer. After deparaffination, sections were stained with validated antibodies for nitrotyrosine and ZO-1 (tight junctions). […] Nitrotyrosine labeling was detected with 3′3′-Diaminobenzidine (DAB) staining, and nitrotyrosine labeled hepatic sections were imaged at 100× magnification in brightfield using a Nikon Eclipse TS100 microscope with NIS-Elements BR 3.0 software (NIKON Inc, Melville, NY, USA). Slides with ZO-1 staining were imaged in z-stacks obtained at 20× magnification using Olympus FV-1200 confocal microscope with Fluoview software FV10-ASW Version 04.02.02.09 (Olympus Corp Center Valley, PA, USA). Quantification of ZO-1 staining hepatic tight junctions was carried out by unbiassed image analysis calculating area sum of pixel^2 of the green channel staining ZO-lusing CellSens software (Olympus Corp Center Valley, PA, USA).

Sprague-Dawley rats [1] = experiment: CFA inflammatory pain / von Frey with electronic detection (eVF); type: in vivo, rat; settings: for antinociceptive activity, SRP-001 versus ApAP: 32 and 100 mg/kg, young and aged rats
Procedure: In this model of mechanonociception, one hind paw at a time is stimulated with an electronic von Frey (eVF) filament (noxious source) until the animal retracts the paw from the mechanical stimulus. von Frey tests were conducted in a dedicated room at the LSUHSC New Orleans Neuroscience Center of Excellence vivarium. Rats were acclimated to their environment for 2 days for 30 min/day prior to testing. To obtain eVF pressure recordings, each animal was placed in an individual plastic observation compartment on a perforated metallic grid platform, which provided access to the plantar surface of the hind paws. After acclimation to the environment for 30 min, mechanical hypersensitivity was assessed by stimulating the mid-plantar area of each hind paw with a rigid tip von Frey filament attached to the eVF meter (Ugo Basile 38450) until animals withdrew the paw from the filament. The withdrawal threshold was defined as the average force/pressure (g) required for the rat to withdraw the stimulated paw. A brisk withdrawal of the paw (often followed by a sustained retraction and/or licking) was considered a positive response, but paw withdrawals due to locomotion or weight shifting were not counted. The von Frey studies were conducted with an eVF device that electronically registers the grams of force necessary to elicit paw withdrawal in order to eliminate bias that confounded previous older versions of this test. Baseline withdrawal thresholds of both the right and left paws were recorded, and animals were assigned to different treatment groups so that each group had approximately equal withdrawal threshold averages in both paws. […] Doses at concentrations of 32 mg/kg and 100 mg/kg were tested in a cumulative dose-response manner and given at an interval of 60 min, and paw withdrawal threshold readings were measured using eVF as described above.

Sprague-Dawley rats [2] = experiment: CFA-induced inflammatory pain / Hargreaves thermal sensitivity assay; type: in vivo, rat; settings: for analgesia, paw withdrawal latencies: 100 mg/kg
Excerpt: In these same cohorts of animals, we simultaneously measured their thermal nociception to hyperalgesia with the Hargreaves test using the plantar test apparatus (Ugo Basile 37570). In this experimental setup, the rodents are placed in plastic cages on top of a glass surface, and their hind paws are subjected to an infrared heat stimulus. One hind paw at a time is stimulated with the light source (noxious stimuli) until the animal retracts the paw from the glass surface because of the stimulus. Baseline withdrawal thresholds (latency) of both the right and left paws were recorded, and animals were assigned to different treatment groups so that each group had approximately equal withdrawal threshold averages in both paws. After baseline testing, treated animals received subcutaneous plantar injection (150 μl) of 50% CFA into the left hind paw, while control animals received a plantar injection (150 μl) of 0.9% NaCl into their left hind paw. CFA induces inflammation, resulting in a left hind paw that is hypersensitive to the thermal stimulus, while the right hind paw serves as a within-subject baseline for each animal. To obtain Hargreaves withdrawal latency recordings, each animal was placed in an individual plastic observation compartment on a glass platform, which provided access to the plantar surface of the hind paws from underneath. After acclimation to the environment for 30 min, thermal hypersensitivity was assessed by stimulating the mid-plantar area of each hind paw with a bright light source attached to the meter (Ugo Basile 37570) until animals withdrew the paw from the surface. The withdrawal threshold was defined as the average time (s) required for the rat to withdraw the stimulated paw. A brisk withdrawal of the paw (often followed by a sustained retraction and/or licking) was considered a positive response, but paw withdrawals due to locomotion or weight shifting were not counted. The Hargreaves studies were conducted with the plantar stimulation device that automatically registers the time (s) necessary to elicit paw withdrawal in order to eliminate bias in determining paw withdrawal thresholds. A cutoff of 20 s is pre-programmed so that the light source shuts off at that maximal period so as to not induce any burns on the plantar surface of the rodents. The Hargreaves test permits measurement of ipsilateral and contralateral heat thresholds, allowing each animal to serve as its own internal control in unilateral pain models. In addition, the Hargreaves test enables quantification of heat thresholds in unrestrained animals, reducing the likelihood of stress-induced responses.

[3] = young male and young female rats

Structure (SMILES) | hepatic tight junctions by ZO-1 staining (CD1 mice; CD1 mice, 600 mg/kg PO, 12 h, 600 mg/kg) | signs of hepatotoxicity (CD1 mice; 600 mg/kg) | animals dead in 48 hours (CD1 mice) | antinociceptive activity, SRP-001 versus ApAP (Sprague-Dawley rats [1]) | analgesia, paw withdrawal latencies (Sprague-Dawley rats [2]; aged male rats) | analgesia, paw withdrawal latencies (Sprague-Dawley rats [2]; [3]) | centrilobular necrosis / nitrotyrosine staining of liver sections (CD1 mice; CD1 mice, 600 mg/kg PO, 12 h) | liver transaminases ALT and AST (CD1 mice; CD1 mice, 600 mg/kg, serum) | TUNEL-positive apoptotic nuclei in liver sections (CD1 mice; mouse, in vivo, 600 mg/kg) | equimolar (μmol/kg) ED50 / dose-response curve relative to ApAP (Sprague-Dawley rats [1]; von Frey, non-linear regression) | antinociception in Hargreaves assay (Sprague-Dawley rats [2]; young female and male rats and aged male rats)
CC(=O)Nc1ccc(O)cc1 [ApAP, acetaminophen] | significant reduction in ZO-1-stained tight junctions; also recorded: marked decrease in ZO-1 | hepatotoxicity is evident | 75% | comparable antinociceptive activity; also recorded: comparable analgesic activity | significant analgesia | significant analgesia | – | – | – | – | –
CCN(CC)C(=O)c1ccccc1S(=O)(=O)NCC(=O)Nc1ccc(O)cc1 [SRP-001, N,N-diethyl-2-[[2-(4-hydroxyanilino)-2-oxo-ethyl]sulfamoyl]benzamide] | – | no signs of hepatotoxicity | none | comparable antinociceptive activity; also recorded: more efficacious than ApAP; also recorded: comparable analgesic activity | significant analgesia | significant analgesia | lack nitrotyrosine staining | not observed | almost no TUNEL signal | shifted curves to the left; also recorded: comparable or improved ED50; also recorded: clear shift to the left | Antinociception was also confirmed

From US20250339391A1, “METHODS FOR EFFECTIVE MANAGEMENT OF PAIN” (South Rampart Pharma, Inc., priority 2024, published 2025)
